Results from US12570648B2, “6,7-dihydro-5H-pyrido[2,3-c]pyridazine derivatives and related compounds as Bcl-xL protein inhibitors and pro-apoptotic agents for treating cancer” (LES LABORATOIRES SERVIER, priority 2019, dated 2026).

What was measured:
H146 cells = test: H146 cell viability using MTT assay; assay type: cell-based; conditions: Homo sapiens, NCI-H146, 48 h exposure
Experimental: MTT colorimetric assay is based on the mitochondrial reduction of tetrazolium salt by living cells. The viable cell number is proportional to the production of formazan salts, which can be read spectrophotometrically at 540 nm.
MOLT-4 and H146 cells were purchased from ATCC and cultivated in RPMI 1640 supplemented with 10% heat inactivated fetal bovine serum, penicillin (100 IU/ml), streptomycin (100 μg/ml) and L-glutamine (2 mM). Cells were cultured at 37° C. in a humidified atmosphere containing 5% CO2. Cells were seeded in 96 microwell plates (150p per well) and exposed to the compounds for 48 h (3.16 fold serially diluted; 9 concentrations each, triplicates). At the end of incubation time, 15 μL of MTT solution (5 mg/ml) were added per well and the cells were incubated for another 4 h. Then, 100 μL of 10% Sodium Dodecyl Sulfate (SDS)/HCl 10 mM were added per well and the plate was incubated overnight, before measurement of optical density at 540 nm. IC50s were calculated using standard four-parametric curve fitting.

MOLT-4 cells = test: MOLT-4 cell viability using MTT assay; assay type: cell-based; conditions: Homo sapiens, MOLT-4, 48 h, 48 h exposure
Experimental: MTT colorimetric assay is based on the mitochondrial reduction of tetrazolium salt by living cells.
Cells were cultured at 37° C. in a humidified atmosphere containing 5% CO2. […] At the end of incubation time, 15 μL of MTT solution (5 mg/ml) were added per well and the cells were incubated for another 4 h. […] IC50s were calculated using standard four-parametric curve fitting.

[1] = target: His-His-(EK)-hsBCLXL(2-197)[N197C] (Homo sapiens (Human), UniProt Q07817, N197C); test: Fluorescence quenching assay; assay type: binding; conditions: 1 nM Cy5-labelled protein, 400 nM PUMA peptide, 2 hours at 23° C.; KI determined from IC50
His-His-(EK)-hsBCLXL(2-197)[N197C], sequence (Q07817 2-197 N197C): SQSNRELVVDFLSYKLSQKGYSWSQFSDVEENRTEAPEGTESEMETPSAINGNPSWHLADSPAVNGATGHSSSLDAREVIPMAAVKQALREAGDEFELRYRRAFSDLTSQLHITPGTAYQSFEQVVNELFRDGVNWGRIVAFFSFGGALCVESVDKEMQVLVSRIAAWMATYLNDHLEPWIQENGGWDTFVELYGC
Procedure, shortened: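 Cy5-labelled BCL-xL (1 nM) with TQ5WS quencher-labelled PUMA peptide (400 nM); displacement by compound (11-point dilution) raises fluorescence. Buffer 10 mM HEPES, 150 mM NaCl, 0.05% Tween 20, pH 7.4, 5% DMSO; 2 h at 23° C, Ex 620/Em 680 nm. Ki derived from IC50.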

Cc1c(Nc2nc3ccccc3s2)nnc2c1CCCN2c1nc(C(=O)O)c(CCCOc2ccc(C#CCNCC[N+](C)(C)CCCS(=O)(=O)[O-])cc2F)s1 [Example 54, 3-[2-[3-[4-[3-[2-[3-(1,3-Benzothiazol-2-ylamino)-4-methyl-6,7-dihydro-5H-pyrido[2,3-c]pyridazin-8-yl]-4-carboxy-thiazol-5-yl]propoxy]-3-fluoro-phenyl]prop-2-ynylamino]ethyl-dimethyl-ammonio]propane-1-sulfonate]
IC50 (H146 cells): 595 nM | IC50 (MOLT-4 cells): 47.2 nM | Ki [1]: 0.0012 nM

Cc1c(Nc2nc3ccccc3s2)nnc2c1CCCN2c1nc(C(=O)O)c(CCCOc2ccc(C#CCN3CCCC(O)C3)cc2F)s1 (stereo not drawn) [Example 55, 2-[3-(1,3-Benzothiazol-2-ylamino)-4-methyl-6,7-dihydro-5H-pyrido[2,3-c]pyridazin-8-yl]-5-[3-[2-fluoro-4-[3-(3-hydroxy-1-piperidyl)prop-1-ynyl]phenoxy]propyl]thiazole-4-carboxylic acid]
IC50 (H146 cells): 5.65 nM | IC50 (MOLT-4 cells): 0.949 nM | Ki [1]: 0.0092 nM

Cc1c(Nc2nc3ccccc3s2)nnc2c1CCCN2c1nc(C(=O)O)c(CCCOc2ccc(C#CCN3C[C@H]4C[C@H]4C3)cc2F)s1 [Example 56, 5-[3-[4-[3-[(1S,5R)-3-Azabicyclo[3.1.0]hexan-3-yl]prop-1-ynyl]-2-fluoro-phenoxy]propyl]-2-[3-(1,3-benzothiazol-2-ylamino)-4-methyl-6,7-dihydro-5H-pyrido[2,3-c]pyridazin-8-yl]thiazole-4-carboxylic acid]
IC50 (H146 cells): 12.9 nM | IC50 (MOLT-4 cells): 1.46 nM | Ki [1]: 0.049 nM

Cc1c(Nc2nc3ccccc3s2)nnc2c1CCCN2c1nc(C(=O)O)c(CCCOc2ccc(C#CCN3CCC(N4CCCCC4)CC3)cc2F)s1 [Example 57, 2-[3-(1,3-Benzothiazol-2-ylamino)-4-methyl-6,7-dihydro-5H-pyrido[2,3-c]pyridazin-8-yl]-5-[3-[2-fluoro-4-[3-[4-(1-piperidyl)-1-piperidyl]prop-1-ynyl]phenoxy]propyl]thiazole-4-carboxylic acid]
IC50 (H146 cells): 5.54 nM | IC50 (MOLT-4 cells): 0.592 nM | Ki [1]: 0.003 nM

Cc1c(Nc2nc3ccccc3s2)nnc2c1CCCN2c1nc(C(=O)O)c(CCCOc2ccc(C#CCN3CCC4(CC3)CNC(=O)C4)cc2F)s1 [Example 58, 2-[3-(1,3-Benzothiazol-2-ylamino)-4-methyl-6,7-dihydro-5H-pyrido[2,3-c]pyridazin-8-yl]-5-[3-[2-fluoro-4-[3-(3-oxo-2,8-diazaspiro[4.5]decan-8-yl)prop-1-ynyl]phenoxy]propyl]thiazole-4-carboxylic acid]
IC50 (H146 cells): 6.65 nM | IC50 (MOLT-4 cells): 0.817 nM | Ki [1]: 0.0048 nM

Cc1c(Nc2nc3ccccc3s2)nnc2c1CCCN2c1nc(C(=O)O)c(CCCOc2ccc(C#CCN(C)C)cc2Br)s1 [Example 59, 2-{3-[(1,3-Benzothiazol-2-yl)amino]-4-methyl-5H,6H,7H,8H-pyrido[2,3-c]pyridazin-8-yl}-5-(3-{2-bromo-4-[3-(dimethylamino)prop-1-yn-1-yl]phenoxy}propyl)-1,3-thiazole-4-carboxylic acid]
IC50 (H146 cells): 17.3 nM | IC50 (MOLT-4 cells): 3.36 nM | Ki [1]: 0.023 nM

Cc1c(Nc2nc3ccccc3s2)nnc2c1CCCN2c1nc(C(=O)O)c(CCCOc2ccc(N3CCN(C)CC3)cc2F)s1 [Example 60, 2-{3-[(1,3-Benzothiazol-2-yl)amino]-4-methyl-5H,6H,7H,8H-pyrido[2,3-c]pyridazin-8-yl}-5-{3-[2-fluoro-4-(4-methylpiperazin-1-yl)phenoxy]propyl}-1,3-thiazole-4-carboxylic acid]
IC50 (H146 cells): 8.86 nM | IC50 (MOLT-4 cells): 2.75 nM | Ki [1]: 0.0089 nM

Cc1c(Nc2nc3ccccc3s2)nnc2c1CCCN2c1nc(C(=O)O)c(CCCOc2cc3c(cc2F)c(CN(C)C)cn3C)s1 [Example 61, 2-{3-[(1,3-Benzothiazol-2-yl)amino]-4-methyl-5H,6H,7H,8H-pyrido[2,3-c]pyridazin-8-yl}-5-[3-({3-[(dimethylamino)methyl]-5-fluoro-1-methyl-1H-indol-6-yl}oxy)propyl]-1,3-thiazole-4-carboxylic acid]
IC50 (H146 cells): 120 nM | IC50 (MOLT-4 cells): 122 nM | Ki [1]: 0.033 nM

Cc1c(Nc2nc3ccccc3s2)nnc2c1CCCN2c1nc(C(=O)O)c(CCCOc2ccc(CCCCN(C)C)cc2F)s1 [Example 62, 2-{3-[(1,3-Benzothiazol-2-yl)amino]-4-methyl-5H,6H,7H,8H-pyrido[2,3-c]pyridazin-8-yl}-5-(3-{4-[4-(dimethylamino)butyl]-2-fluorophenoxy}propyl)-1,3-thiazole-4-carboxylic acid]
IC50 (H146 cells): 69 nM | IC50 (MOLT-4 cells): 20.2 nM | Ki [1]: 0.0034 nM

CNCCc1ccc(OCCCc2sc(N3CCCc4c3nnc(Nc3nc5ccccc5s3)c4C)nc2C(=O)O)c(F)c1 [Example 64, 2-{3-[(1,3-Benzothiazol-2-yl)amino]-4-methyl-5H,6H,7H,8H-pyrido[2,3-c]pyridazin-8-yl}-5-(3-{2-fluoro-4-[2-(methylamino)ethyl]phenoxy}propyl)-1,3-thiazole-4-carboxylic acid]
IC50 (H146 cells): 11.8 nM | IC50 (MOLT-4 cells): 30.5 nM | Ki [1]: 0.0052 nM

CNCCOC1Cc2c(nnc(Nc3nc4ccccc4s3)c2C)N(c2nc(C(=O)O)c(CCCOc3ccc(C#CCN(C)C)cc3F)s2)C1 (stereo not drawn) [Example 65, 2-{3-[(1,3-Benzothiazol-2-yl)amino]-4-methyl-6-[2-(methylamino)ethoxy]-5H,6H,7H,8H-pyrido[2,3-c]pyridazin-8-yl}-5-(3-{4-[3-(dimethylamino)prop-1-yn-1-yl]-2-fluorophenoxy}propyl)-1,3-thiazole-4-carboxylic acid]
IC50 (H146 cells): 3.98 nM | IC50 (MOLT-4 cells): 26.6 nM | Ki [1]: 0.005 nM

Cc1c(Nc2nc3ccccc3s2)nnc2c1CCCN2c1nc(C(=O)O)c(CCCOc2cc3c(cc2F)CCN(C)C3)s1 [Example 66, 2-{3-[(1,3-Benzothiazol-2-yl)amino]-4-methyl-5H,6H,7H,8H-pyrido[2,3-c]pyridazin-8-yl}-5-{3-[(6-fluoro-2-methyl-1,2,3,4-tetrahydroisoquinolin-7-yl)oxy]propyl}-1,3-thiazole-4-carboxylic acid]
IC50 (H146 cells): 8.22 nM | IC50 (MOLT-4 cells): 2.01 nM | Ki [1]: 0.012 nM

Cc1c(Nc2nc3ccccc3s2)nnc2c1CCCN2c1nc(C(=O)O)c(CCCOc2ccc(CCCN3CCC3)cc2F)s1 [Example 67, 5-[3-[4-[3-(Azetidin-1-yl)propyl]-2-fluoro-phenoxy]propyl]-2-[3-(1,3-benzothiazol-2-ylamino)-4-methyl-6,7-dihydro-5H-pyrido[2,3-c]pyridazin-8-yl]thiazole-4-carboxylic acid]
IC50 (H146 cells): 14.6 nM | IC50 (MOLT-4 cells): 7.4 nM | Ki [1]: 0.0032 nM

Cc1c(Nc2nc3ccccc3s2)nnc2c1CCCN2c1nc(C(=O)O)c(CCCOc2ccc(CCCN3CCN(C)CC3)cc2F)s1 [Example 68, 2-[3-(1,3-Benzothiazol-2-ylamino)-4-methyl-6,7-dihydro-5H-pyrido[2,3-c]pyridazin-8-yl]-5-[3-[2-fluoro-4-[3-(4-methylpiperazin-1-yl)propyl]phenoxy]propyl]thiazole-4-carboxylic acid]
IC50 (H146 cells): 10.4 nM | IC50 (MOLT-4 cells): 2.91 nM | Ki [1]: 0.0038 nM

Cc1c(Nc2nc3ccccc3s2)nnc2c1CCCN2c1nc(C(=O)O)c(CCCOc2ccc(CCCN3CCOCC3)cc2F)s1 [Example 70, 2-[3-(1,3-Benzothiazol-2-ylamino)-4-methyl-6,7-dihydro-5H-pyrido[2,3-c]pyridazin-8-yl]-5-[3-[2-fluoro-4-(3-morpholinopropyl)phenoxy]propyl]thiazole-4-carboxylic acid]
IC50 (H146 cells): 16.9 nM | IC50 (MOLT-4 cells): 3.08 nM | Ki [1]: 0.017 nM

Cc1c(Nc2nc3ccccc3s2)nnc2c1CCCN2c1nc(C(=O)O)c(CCCOc2ccc(CCCN3CCCCC3)cc2F)s1 [Example 71, 2-[3-(1,3-Benzothiazol-2-ylamino)-4-methyl-6,7-dihydro-5H-pyrido[2,3-c]pyridazin-8-yl]-5-[3-[2-fluoro-4-[3-(1-piperidyl)propyl]phenoxy]propyl]thiazole-4-carboxylic acid]
IC50 (H146 cells): 9.3 nM | IC50 (MOLT-4 cells): 2.11 nM | Ki [1]: 0.0045 nM

Cc1c(Nc2nc3ccccc3s2)nnc2c1CCCN2c1nc(C(=O)O)c(CCCOc2ccc(CCCN3CCC4(CC3)CNC(=O)C4)cc2F)s1 [Example 73, 2-[3-(1,3-Benzothiazol-2-ylamino)-4-methyl-6,7-dihydro-5H-pyrido[2,3-c]pyridazin-8-yl]-5-[3-[2-fluoro-4-[3-(3-oxo-2,8-diazaspiro[4.5]decan-8-yl)propyl]phenoxy]propyl]thiazole-4-carboxylic acid]
IC50 (H146 cells): 14.7 nM | IC50 (MOLT-4 cells): 6.54 nM | Ki [1]: 0.0025 nM
